Measurements reported in US12419976B2, “Hybrid tracers for targeted cancer imaging and treatment” (ACADEMISCH ZIEKENHUIS LEIDEN (H.O.D.N. LUMC), priority 2018, dated 2025).
“And” between values parts separate entries of the source, which are not always exact repeats. Identical values can stand only once. Where a SMILES comes first, the peptide text is derived from it. [ ]: non-standard residue; d: D form. The star is where a group is joined. X1 = O=C(O)CC[C@H](NC(=O)N[C@@H](CCCCNC(=O)CCCCCCC(=O)*)C(=O)O)C(=O)O; d2Nal = N[C@H](Cc1ccc2ccccc2c1)C(=O)O; Mercaptoacetyl = O=C(CS)*

What was measured:
serum albumin = serum albumin (Homo sapiens, UniProt P02768); experiment: Plasma protein binding (serum binding); format: in vitro ADME; conditions: for Plasma protein binding (PPB): FIG. 2A; for fraction unbound: serum albumin, n = 3 (Table 3)
serum albumin, sequence (P02768 25-609): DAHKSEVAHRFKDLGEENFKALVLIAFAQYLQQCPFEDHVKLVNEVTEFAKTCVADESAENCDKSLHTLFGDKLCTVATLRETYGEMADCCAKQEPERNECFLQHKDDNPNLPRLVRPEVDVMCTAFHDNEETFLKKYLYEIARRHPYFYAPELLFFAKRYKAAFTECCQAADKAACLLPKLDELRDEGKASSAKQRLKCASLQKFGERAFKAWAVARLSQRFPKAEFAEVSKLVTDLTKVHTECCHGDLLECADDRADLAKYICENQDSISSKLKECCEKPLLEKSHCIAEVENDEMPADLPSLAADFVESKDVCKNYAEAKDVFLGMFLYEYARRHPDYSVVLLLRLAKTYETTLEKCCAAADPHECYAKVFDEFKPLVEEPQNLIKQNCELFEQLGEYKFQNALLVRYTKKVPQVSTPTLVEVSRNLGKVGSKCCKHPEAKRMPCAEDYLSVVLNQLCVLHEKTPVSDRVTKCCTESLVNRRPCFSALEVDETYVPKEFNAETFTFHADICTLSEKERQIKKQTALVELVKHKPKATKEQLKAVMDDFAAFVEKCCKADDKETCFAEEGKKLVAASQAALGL
From the text: FIG. 2 illustrates the results for plasma protein interaction assays for exemplary hybrid tracer compounds. A) Plasma protein binding as a percentage of the indicated hybrid tracers bound to serum albumin. All hybrid tracers portray significant differences (p<0.05) except when noted (ns).
Serum binding, or rather plasma protein binding (PPB) is a useful pharmacokinetic characteristic for the initial assessment of tracer candidates prior to in vivo use as PPB is directly related to, e.g., blood retention and clearance rates. All hybrid tracers have PPB with values between 52-89% with an average of 76±12% (FIG. 2A). The benzo[e]indole-containing hybrid tracers (EuK(Ar)-Cy5-MAS3, EuK-Cy5-(Ar)MAS3 and EuK(Ar)Cy5-(Ar)MAS3) tend to have the highest PPB. […] This can be explained by Sudlow's site, a binding pocket in albumin's subdomain IIA, which binds bulky heterocyclic anions. No clear correlation could be found between c log D and serum binding. Even though PPB has a relation to the lipophilicity, it was expected that we could not predict the PPB based on the c log D as the PPB cannot be explained by a single physiochemical characteristic.

[1] = Stability in serum at 37° C., absorbance and fluorescence after 24 h; format: in vitro ADME; conditions: for Serum stability after 24 h, remaining absorbance / Serum stability after 24 h, remaining fluorescence: n = 2
Procedure: Not only serum binding, but also the stability in serum is valuable. This characteristic is another brick in the wall for the preclinical evaluation of hybrid tracers since this indicates a compound's in vivo stability. Clearly, any compound degrading in an in vivo environment is not suited for clinical use. All hybrid tracers were incubated in serum at 37° C. and their absorbance and fluorescence were measured after 24 h.

PSMA [2] = target: T1, PSMA (Homo sapiens, UniProt Q04609); experiment: Competitive binding assay, LNCaP cells, EuK[125I]I-BA radioligand; conditions: for IC50: human LNCaP cells, EuK[125I]I-BA competitive radioligand, n ≥ 3, read-out: IC50 (PSMA affinity)
T1 construct: endogenous in cells; host or cells: LNCaP cells
T1 sequence (Q04609 whole entry): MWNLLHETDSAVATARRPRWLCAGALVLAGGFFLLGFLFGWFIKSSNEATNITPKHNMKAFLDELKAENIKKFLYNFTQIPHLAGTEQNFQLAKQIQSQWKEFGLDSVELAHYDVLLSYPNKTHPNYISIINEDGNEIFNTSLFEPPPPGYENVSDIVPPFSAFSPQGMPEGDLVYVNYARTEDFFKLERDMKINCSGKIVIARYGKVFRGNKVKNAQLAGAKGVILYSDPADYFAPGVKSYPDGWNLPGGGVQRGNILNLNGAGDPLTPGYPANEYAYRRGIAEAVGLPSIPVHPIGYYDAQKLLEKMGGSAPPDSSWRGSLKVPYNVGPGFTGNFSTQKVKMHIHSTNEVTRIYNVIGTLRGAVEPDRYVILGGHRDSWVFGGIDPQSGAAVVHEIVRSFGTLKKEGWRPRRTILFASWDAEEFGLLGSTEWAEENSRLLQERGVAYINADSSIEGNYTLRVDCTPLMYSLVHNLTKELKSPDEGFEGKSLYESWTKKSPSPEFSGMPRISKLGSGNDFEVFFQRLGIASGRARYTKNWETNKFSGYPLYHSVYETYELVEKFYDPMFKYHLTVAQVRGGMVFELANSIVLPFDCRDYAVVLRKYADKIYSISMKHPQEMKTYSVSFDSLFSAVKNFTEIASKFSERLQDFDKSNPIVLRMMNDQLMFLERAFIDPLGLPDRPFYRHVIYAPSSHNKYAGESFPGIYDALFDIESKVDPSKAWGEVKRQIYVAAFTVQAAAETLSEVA
Procedure: (§1) Fluoresence confocal microscopy was utilised as a tool for receptor localisation. As depicted in FIG. 3, a typical PSMA-targeting tracer brightly stains the extracellular receptor. IC50 was determined in a competitive binding assay using human LNCaP cells and EuK[^125I]I-BA as competitive radioligand.

[3] = Photophysical properties of Cy5 dyes and hybrid tracers in PBS; format: physicochemical; conditions: for Brightness: determined using the ε of the hybrid tracer's corresponding fluorophore
Procedure: The brightness of a dye—one of the most important photophysical characteristics in a clinical setting—is the product of its molar extinction coefficient (e) and quantum yield (ϕF). We therefore set out to determine the e of each fluorophore by creating a linear concentration range (7.5-0.25 μM) in PBS and measuring the corresponding absorbance (Table 1). The addition of a sulfonate on the carboxylic-acid-containing indoline moiety diminishes the epsilon and the use of extra aryl moieties on the cyanine backbone greatly diminishes the dyes' solvability and thus their epsilon is greatly diminished as well.
The ϕF of a fluorophore is the relation between the number of photons emitted divided by the number of photons absorbed by a single molecule. It is therefore also called the emission efficiency. […] Perhaps an asymmetrical cyanine core, with its significant electron density imbalance, is an inefficient fluorophore. In line with our expectations-since the benzo[e]indole caused J-aggregate formation, the ϕF of benzo[e]indole-containing fluorophores were diminished. […] The only trend derived from the abovementioned data is that the free fluorophore benefits (when optimising emission efficiency) from symmetrical substituents on the cyanine structure.
As the brightness of a fluorophore (or hybrid tracer) is one of its most important photophysical traits, we calculated the brightness for all fluorophores. In order to give insight in the hybrid tracer's optical performance, the brightness was determined by using the ε of its corresponding fluorophore in PBS. […] EuK(SO3)-Cy5-MAS3 thus contains the most favourable photophysical characteristics out of these 6 exemplary hybrid tracers.

[4] = test system: orthotopically transplanted PC346C cells; experiment: In vivo SPECT imaging in tumour-bearing mice; conditions: tumour-bearing nude BALB/c mice, FIG. 4A
Procedure: (§2) A) In vivo SPECT imaging. Coronal SPECT imaging image of prostate tumour-bearing mice injected with either one of the PSMA hybrid tracer analogues. Organs are denoted as Lu (lungs), Li (liver), G (gallbladder), S (spleen), K (kidneys), B (bladder) and T (tumour). B) Comparison of biodistribution of the hybrid tracer matrix compared to the clinically approved tracer PSMA I&S, with C) providing the biodistribution of hybrid tracer EUK(SO3)—CY5-MAS3. Biodistribution pattern at 2 h post injection of the different hybrid tracers from the matrix compared to the reference tracer PSMA I&S depicted as percentage of the injected dose per gram tissue (% ID/g).
(§3) The in vivo characteristics were investigated in male BALB/c nude mice using orthotopically transplanted PC346C cells. These mice were analysed in various ways, i.e., in vivo nuclear imaging (SPECT) in tumour-bearing mice, in vivo optical imaging (fluorescence imaging) in tumour-bearing mice, ex vivo biodistribution (percentage injected dose per gram (% ID/g)) in healthy and tumour-bearing mice and ex vivo fluorescence imaging.

[5] = test system: orthotopically transplanted PC346C cells; experiment: Ex vivo biodistribution in tumour-bearing mice; conditions: for Hepatic clearance: FIG. 5C, in %ID/g; for Tumour-to-fat ratio (T/F): FIG. 5D
Procedure: as §2
FIG. 5 illustrates biodistribution parameters and tumour uptake for exemplary hybrid tracers. Overview of A) the % Injected activity found in all excised organs percentage of the injected activity that remained at 2 h post tracer injection (all ns), B) the amount of radioactivity still present in the blood pool and C) no significant differences in hepatic clearance between the compounds. To highlight the visibility of the tumour over background tissue notorious for occluding signal within the area of the prostate, the D) tumour-to-fat and E) the tumour-to-blood ratio are provided for the individual hybrid tracers. Significance portrayed as: nothing (non-significant) *(p≤0.05) **(p≤0.01) ***(p≤0.001).
as §3

[6] = Lipophilicity logP(o/w) of 99mTc-labeled hybrid tracers; format: physicochemical; conditions: octanol/water, n = 6
PSMA [7] = target: T1, PSMA; experiment: Fluorescence confocal microscopy of LNCaP cells; format: cell-based; conditions: FIG. 3
Procedure: A) provides a brightfield image of incubated cells. B) provides an overlay of confocal images of incubated cells with Cy5-related signal of the PSMA-targeting tracer in red, the nucleus in blue and lysosomes in the cytoplasm in green. C) provides an overlay of the confocal and brightfield images.
as §1

Plasma protein binding (PPB) (serum albumin)	Serum stability (comparison between tracers) ([1]; p<0.05)	IC50 (PSMA [2])	Stokes shift [3]	ΦF (quantum yield) [3]	λem [3]	λex [3]	Brightness [3]	Hepatic clearance [5]	fraction unbound (serum albumin)	Serum stability after 24 h, remaining absorbance [1]	Serum stability after 24 h, remaining fluorescence [1]	logP [6]	Blood retention ([5]; 2 h post injection, FIG. 5B)	PSMA affinity relative to EuK-Cy5(SO3)-MAS3 (PSMA [2]; ratio of affinities)	Staining of LNCaP cells (confocal) (PSMA [7])	Tumour-to-blood ratio (T/B) ([5]; FIG. 5E)	Tumour-to-fat ratio (T/F) [5]	SMILES	Nuclear (SPECT) imaging of the tumour [4]	Kidney accumulation ([5]; biodistribution 2 h post injection)
highest PPB	–	164 ± 76.9 nM	17 nm	9%	680 nm	663 nm	5^‡ 10^3 M^−1 · cm^−1	–	0.11	75 ± 0 % remaining	76 ± 0 % remaining	-1.84 ± 0.06	–	–	–	–	–	CC(=O)SCC(=O)NC(CO)C(=O)NC(CO)C(=O)NC(CO)C(=O)NCCCCCC(=O)NCCCCN1C(=CC=CC=CC2=[N+](CCCCCC(=O)NCCCCC(NC(=O)NC(CCC(=O)O)C(=O)O)C(=O)O)c3ccccc3C2(C)C)C(C)(C)c2c1ccc1ccccc21 (stereo not shown) [EuK-Cy5-(Ar)MAS3]	–	–
–	–	175 ± 61.6 nM	18 nm	16%	663 nm	644 nm	–	19.93±13.44	0.117	80 ± 6 % remaining	86 ± 5 % remaining	-2.13 ± 0.1	–	–	–	–	2542±287	CC(=O)SCC(=O)NC(CO)C(=O)NC(CO)C(=O)NC(CO)C(=O)NCCCCCC(=O)NCCCCN1C(=CC=CC=CC2=[N+](CCCCCC(=O)NCCCCC(NC(=O)NC(CCC(=O)O)C(=O)O)C(=O)O)c3ccccc3C2(C)C)C(C)(C)c2ccccc21 (stereo not shown) [EuK-Cy5-MAS3]	–	–

Further lines, the compound ahead of its results:

SMILES	Plasma protein binding (PPB) (serum albumin)	Serum stability (comparison between tracers) ([1]; p<0.05)	IC50 (PSMA [2])	Stokes shift [3]	ΦF (quantum yield) [3]	λem [3]	λex [3]	Brightness [3]	Hepatic clearance [5]	fraction unbound (serum albumin)	Serum stability after 24 h, remaining absorbance [1]	Serum stability after 24 h, remaining fluorescence [1]	logP [6]	Blood retention ([5]; 2 h post injection, FIG. 5B)	PSMA affinity relative to EuK-Cy5(SO3)-MAS3 (PSMA [2]; ratio of affinities)	Staining of LNCaP cells (confocal) (PSMA [7])	Tumour-to-blood ratio (T/B) ([5]; FIG. 5E)	Tumour-to-fat ratio (T/F) [5]	Nuclear (SPECT) imaging of the tumour [4]	Kidney accumulation ([5]; biodistribution 2 h post injection)
CC(=O)SCC(=O)NC(CO)C(=O)NC(CO)C(=O)NC(CO)C(=O)NCCCCCC(=O)NCCCCN1C(=CC=CC=CC2=[N+](CCCCCC(=O)NCCCCC(NC(=O)NC(CCC(=O)O)C(=O)O)C(=O)O)c3ccc4ccccc4c3C2(C)C)C(C)(C)c2c1ccc1ccccc21 (stereo not shown) [EuK(Ar)-Cy5-(Ar)MAS3]	highest PPB	significantly lower serum stability	345 nM	18 nm	14%	700 nm	682 nm	7^‡ 10^3 M^−1 · cm^−1	0.87±0.66	–	–	–	–	–	–	–	–	–	clear nuclear imaging of the tumour	–
CC(=O)SCC(=O)NC(CO)C(=O)NC(CO)C(=O)NC(CO)C(=O)NCCCCCC(=O)NCCCCN1C(=CC=CC=CC2=[N+](CCCCCC(=O)NCCCCC(NC(=O)NC(CCC(=O)O)C(=O)O)C(=O)O)c3ccc4ccccc4c3C2(C)C)C(C)(C)c2ccccc21 (stereo not shown) [EuK(Ar)-Cy5-MAS3]	highest PPB	–	113 ± 35.9 nM	18 nm	9%	682 nm	664 nm	3^‡ 10^3 M^−1 · cm^−1	0.94±0.13 and 1.10±0.14	0.093	85 ± 3 % remaining	79 ± 1 % remaining	-1.75 ± 0.1	6.91±1.08 ID/g	–	–	–	–	–	–
CC(=O)SCC(=O)NC(CO)C(=O)NC(CO)C(=O)NC(CO)C(=O)NCCCCCC(=O)NCCCCN1C(=CC=CC=CC2=[N+](CCCCCC(=O)NCCCCC(NC(=O)NC(CCC(=O)O)C(=O)O)C(=O)O)c3ccc(S(=O)(=O)[O-])cc3C2(C)C)C(C)(C)c2ccccc21 (stereo not shown) [EuK(SO3)-Cy5-MAS3]	significantly higher than the PPB of EuK-Cy5-MAS3	–	19 nM and 19.2 nM	16 nm	–	664 nm	648 nm	–	2.90±2.06	0.15	97 ± 2 % remaining	89 ± 6 % remaining	-2.86 ± 0.05	–	more than 9 fold	PSMA-related staining of LNCaP cells	1713	–	clear nuclear imaging of the tumour	–
CC(=O)SCC(=O)NC(CO)C(=O)NC(CO)C(=O)NC(CO)C(=O)NCCCCCC(=O)NCCCCN1C(=CC=CC=CC2=[N+](CCCCCC(=O)NCCCCC(NC(=O)NC(CCC(=O)O)C(=O)O)C(=O)O)c3ccccc3C2(C)C)C(C)(C)c2cc(S(=O)(=O)[O-])ccc21 (stereo not shown) [EuK-Cy5-(SO3)MAS3]	significantly higher than the PPB of EuK-Cy5-MAS3	–	119 ± 117 nM	16 nm	7%	664 nm	648 nm	10^‡ 10^3 M^−1 · cm^−1	–	0.126	82 ± 7 % remaining	85 ± 1 % remaining	-2.7 ± 0.01	–	–	–	–	2658±659	clear nuclear imaging of the tumour	–
O=C(O)CC[C@H](NC(=O)N[C@@H](CCCCNC(=O)CCCCCCC(=O)NCCCC[C@@H](NC(=O)[C@@H](Cc1ccc2ccccc2c1)NC(=O)[C@@H](Cc1ccc(O)cc1)NC(=O)[C@@H](CO)NC(=O)[C@@H](CO)NC(=O)[C@@H](CO)NC(=O)CS)C(=O)O)C(=O)O)C(=O)O [PSMA I&S, reference compound] (Mercaptoacetyl-[dS][dS][dS][dY][d2Nal][dK](X1)-OH)	–	–	–	–	–	–	–	–	–	–	–	–	–	–	–	–	–	–	–	186.0±23.0 ID/g
